Patent US20260240740A1, “MULTI-PHOTOPROTECTIVE COMPOUNDS AND USES THEREOF” (SKINOSIVE, priority 2022, published 2026)

Experiments:
[1] = UV absorbance profile: λmax in solvents, FLUOstar plate reader; assay type: physicochemical; conditions: for λmax double peak, first peak / λmax double peak, second peak: 50 μM
Procedure: Compound #2 (OOD), Univul A plus (DHHB)+Octocrylene (OCR) were dissolved in a solvent at the same concentration (125 μM).
Compound #4 (OHD), Univul A plus (DHHB)+Octocrylene (OCR) were dissolved in a solvent at the same concentration (125 μM).
Compound #5 (BOO) and BEMT (6,6′-(6-(4-methoxyphenyl)-1,3,5-triazine-2,4-diyl)bis(3-((2-ethylhexyl)oxy)phenol)=Tinosorb S)+Octocrylene (OCR) were dissolved in a solvent at the same concentration (50 μM).
UV Absorbance Profil of Compound #6 (BOO-OM) Compound #6 (BOO-OM) and BEMT (6,6′-(6-(4-methoxyphenyl)-1,3,5-triazine-2,4-diyl)bis(3-((2-ethylhexyl)oxy)phenol)=Tinosorb S)+Octocrylene (OCR) were dissolved in a solvent at the same concentration (50 μM).

[2] = Solubility in sunscreen solvents; assay type: physicochemical; conditions: 50° C.
Procedure: Compound #2 (OOD) and a sunscreen solvent were weighed in a Becher. The Becher was placed on a magnetic stir plate, heated up to 50° C., and the solution was vigorously mixed with a bar magnet.
Compound #4 (OHD) and a sunscreen solvent were weighed in a Becher. The Becher was placed on a magnetic stir plate, heated up to 50° C., and the solution was vigorously mixed with a bar magnet.
Compound #5 (BOO) and a sunscreen solvent were weighed in a Becher. The Becher was placed on a magnetic stir plate, heated up to 50° C., and the solution was vigorously mixed with a bar magnet.
Compound #6 (BOO-OM) and a sunscreen solvent were weighed in a Becher. The Becher was placed on a magnetic stir plate, heated up to 50° C., and the solution was vigorously mixed with a bar magnet.

pig skin = test: UV protection ex vivo on pig skin by autofluorescence quenching
Procedure: UV Protection Performance of Compound #2 (OOD) UVB and UVA protections have been assessed ex vivo on pig skin by measuring the autofluorescence quenching. OOD (Compound #2), the mix of DHHB+OCR were solubilized at the same molar concentration in Dottisol (isosorbide dimethyl ether), covered 6.25 cm2 skin square and incubated 20 min or 2 hours at room temperatures, and then 7 mm skin punches were cut and placed in a black 96-well plate. UVB and UVA protections were measured after respectively an excitation at 300 nm and 355 nm and a fluorescence emission was read at 460 nm. DMSO was added on the pig skin before the reading of the residual fluorescence.
UVB and UVA protections have been assessed ex vivo on pig skin by measuring the autofluorescence quenching. BOO (Compound #5) and the mix of BEMT+OCR were solubilized at the same molar concentration in Dottisol (isosorbide dimethyl ether), covered 6.25 cm^2 skin square and incubated 4 hours at 34° C., washed or not with 10 mL Ethanol for 5 min, and then 7 mm diameter skin punches were cut and placed in a black 96-well plate. UVB and UVA protections were measured after respectively an excitation at 300 nm and 355 nm and a fluorescence emission was read at 460 nm.
UVB protection has been assessed ex vivo on pig skin by measuring the autofluorescence quenching. BOO (Compound #5), BOO-OM (Compound #6) and the mix of BEMT+OCR were solubilized at the same molar concentration in DMDA (dimethyl capramide), covered 6.25 cm2 skin square and incubated 2 hours at 34° C., washed or not with 10 mL Ethanol for 5 min, and then 7 mm diameter skin punches were cut and placed in a black 96-well plate. UVB protection was measured after respectively an excitation at 300 nm and a fluorescence emission was read at 460 nm.

[3] = test system: thiolated polylysine matrix; test: Bio adhesion on thiolated polylysine matrix (UV absorbance at 310 nm after ethanol washes); conditions: overnight incubation in ethanol/PBS (90%/10%), washed 10 times with ethanol
Procedure: (§1) Polylysine and Polylysine enriched in SH by thiolation of primary amines using Traut's reagent were used for coating 96-well microplates. UV filters (BOO and BOO-OM) were incubated overnight under orbital agitation on the different matrices (n=3 for each condition) (uncoated wells were used as negative controls), in an ethanol/PBS (90%/10%) solution. After incubation, each microplate well was thoroughly washed 10 times with ethanol, before measuring UV absorbance. Whole UV/Visible absorbance spectrum from 220 to 1000 nm were measured in the center of each microplate well. In addition, specific UV absorbance at 310 nm was measured by matrix scan over the whole the well as a 10×10 matrix.

[4] = test system: polylysine matrix (non thiolated); test: Bio adhesion on polylysine matrix (non thiolated); conditions: overnight incubation in ethanol/PBS (90%/10%), washed 10 times with ethanol
Procedure: as §1

- λmax double peak, first peak ([1]; Dottisol): 290 nm
- λmax double peak, second peak ([1]; Dottisol): 307 nm
- λmax double peak, first peak ([1]; Dubdis): 289 nm
- λmax double peak, second peak ([1]; Dubdis): 309 nm
- λmax absorbance shift in UVB versus the mix of BEMT-OCR ([1]; same molar concentration, Dubdis, same shift in Dottisol): ≥ 20 nm
- soluble at ratio ([2]; Dimethyl capramide (Spectrasolv DMDA)): 1/10
- soluble at ratio ([2]; Dottisol (dimethyl isosorbide)): ½
- soluble at ratio ([2]; Dubdis (Diisopropyl sebacate)): ½
Compound: CCCCC(CC)COc1ccc(-c2nc(-c3ccc(OC)cc3)nc(-c3ccc(OCC(CC)CCCC)cc3OCCCCCCCCN3C(=O)C=CC3=O)n2)c(OCCCCCCCCNC(=O)C(C#N)=C(c2ccccc2)c2ccccc2)c1 (stereo not drawn) [Compound #6, 2-cyano-N-(8-(2-(4-(2-((8-(2,5-dioxo-2,5-dihydro-1H-pyrrol-1-yl)octyl)oxy)-4-((2-ethylhexyl)oxy)phenyl)-6-(4-methoxyphenyl)-1,3,5-triazin-2-yl)-5-((2-ethylhexyl)oxy)phenoxy)octyl)-3,3-diphenylacrylamide]
- UVB protection of the pig skin compared to the mix OCR+BEMT (pig skin; 2 h incubation, DMDA): similar
- bio adhesive (pig skin, ethanol wash) (pig skin; conclusion from UVB protection after ethanol wash): is bio adhesive
- UVB Fluorescence (Ex300/Em460) No Wash (pig skin; pig skin autofluorescence after 2 h of incubation, DMDA (dimethyl capramide), Mean +/− SD, N = 3): 40608 +/− 3466
- UVB Fluorescence (Ex300/Em460) EtOH Wash (pig skin; pig skin autofluorescence after 2 h of incubation, DMDA, 10 mL Ethanol 5 min, Mean +/− SD, N = 3): 108875 +/− 4401
- UVB protection after ethanol wash compared to the initial protection before washing (pig skin; pig skin, 2 h incubation, DMDA): reduced twice
- bio adhesion, UV absorbance at 310 nm [3]: showed a bio adhesion
- bioadhesion [4]: no bioadhesion
